Assay [1] has as its target T1, Amine oxidase [flavin-containing] B (Homo sapiens, UniProt P27338).
T1 sequence (P27338 whole entry): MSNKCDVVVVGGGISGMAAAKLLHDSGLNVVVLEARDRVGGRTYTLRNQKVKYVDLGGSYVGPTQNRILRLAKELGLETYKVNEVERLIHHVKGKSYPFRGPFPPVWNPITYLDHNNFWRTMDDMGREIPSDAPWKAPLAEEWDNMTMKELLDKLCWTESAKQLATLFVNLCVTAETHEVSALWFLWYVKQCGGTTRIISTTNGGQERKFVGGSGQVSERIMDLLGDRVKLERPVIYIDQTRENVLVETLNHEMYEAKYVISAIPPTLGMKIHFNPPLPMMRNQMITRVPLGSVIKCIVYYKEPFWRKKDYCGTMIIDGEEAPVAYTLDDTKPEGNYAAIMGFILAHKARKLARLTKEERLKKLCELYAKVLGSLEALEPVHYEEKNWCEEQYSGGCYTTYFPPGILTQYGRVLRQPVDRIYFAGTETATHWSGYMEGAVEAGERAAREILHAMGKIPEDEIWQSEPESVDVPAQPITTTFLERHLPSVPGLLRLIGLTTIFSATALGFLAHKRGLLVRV
As to conditions: 0.5 h, read-out: INH.
Description: Inhibition of human MAO-B at 1 uM preincubated with compound for 10 mins followed by substrate addition and measured after 30 mins relative to control

Assay [2] deals with T1, Amine oxidase [flavin-containing] B.
Description: Inhibition of human MAO-B preincubated with compound for 10 mins followed by substrate addition and measured after 30 mins
Assay [3] deals with T2, Amine oxidase [flavin-containing] A (Homo sapiens, UniProt P21397).
T2 sequence (P21397 whole entry): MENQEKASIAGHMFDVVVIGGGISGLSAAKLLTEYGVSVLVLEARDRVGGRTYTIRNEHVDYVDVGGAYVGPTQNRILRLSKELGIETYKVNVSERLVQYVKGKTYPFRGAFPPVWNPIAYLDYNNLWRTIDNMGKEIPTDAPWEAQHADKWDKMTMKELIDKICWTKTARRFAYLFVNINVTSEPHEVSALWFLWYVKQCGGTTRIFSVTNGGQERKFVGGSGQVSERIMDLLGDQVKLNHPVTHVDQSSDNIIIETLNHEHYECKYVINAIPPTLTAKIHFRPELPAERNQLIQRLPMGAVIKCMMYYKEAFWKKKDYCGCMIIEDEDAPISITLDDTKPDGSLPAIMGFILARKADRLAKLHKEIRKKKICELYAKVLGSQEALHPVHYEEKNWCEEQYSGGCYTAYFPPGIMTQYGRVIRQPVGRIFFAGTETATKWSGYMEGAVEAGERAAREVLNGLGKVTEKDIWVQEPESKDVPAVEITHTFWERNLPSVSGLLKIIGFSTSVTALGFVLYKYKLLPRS
Description: Inhibition of human MAO-A preincubated with compound for 10 mins followed by substrate addition and measured after 30 mins

As to `COc1ccc2[nH]c(CC(N)=O)nc2c1`, the inhibition at 1 µM in assay [1] is 0.93%.

With `Cc1ccc(COc2ccc3[nH]c(CC(N)=O)nc3c2)cc1`, the inhibition at 1 µM in assay [1] was determined as 8.29%.

`Cc1ccccc1NC(=O)c1ccc2[nH]c(CC(N)=O)nc2c1`: the inhibition at 1 µM in assay [1] worked out at 31.8%.

Turning to `NC(=O)Cc1nc2cc(OCc3ccccc3)ccc2[nH]1`, in assay [1], the inhibition at 1 µM amounted to 14.3%.

By IC50 is commonly meant the midpoint of a concentration-inhibition curve. As for `NC(=O)Cc1nc2cc(OCc3ccc(C(F)(F)F)cc3)ccc2[nH]1`, the inhibition at 1 µM in assay [1] was found to be 52.2%. The IC50 in assay [2] is 0.161 µM.

On to `NC(=O)Cc1nc2cc(C(=O)Nc3cccc(F)c3)ccc2[nH]1`, for which the inhibition at 1 µM in assay [1] was 39.6%.

Turning to `NC(=O)Cc1nc2cc(OCc3ccccc3Cl)ccc2[nH]1`, the inhibition at 1 µM in assay [1] was determined as 8.15%.

Take `Cc1ccc(NC(=O)c2ccc3[nH]c(CC(N)=O)nc3c2)cc1C`: the inhibition at 1 µM in assay [1] was 31.3%.

As to `Cc1cccc(NC(=O)c2ccc3[nH]c(CC(N)=O)nc3c2)c1C`, in assay [1], the inhibition at 1 µM came out at 27.2%.

Turning to `Cc1ccccc1COc1ccc2[nH]c(CC(N)=O)nc2c1`, the inhibition at 1 µM in assay [1] was 5.6%.

Regarding `NC(=O)Cc1nc2cc(OCc3cccc(F)c3)ccc2[nH]1`, the inhibition at 1 µM in assay [1] came to 67.5%. Further, the IC50 was 0.126 µM in assay [2] and 49.9 µM in assay [3].

For `NC(=O)Cc1nc2cc(C(=O)Nc3ccccc3F)ccc2[nH]1`, the inhibition at 1 µM in assay [1] is 44%.

On to `Cc1cccc(NC(=O)c2ccc3[nH]c(CC(N)=O)nc3c2)c1`, for which the inhibition at 1 µM in assay [1] amounted to 33.7%.

For the compound `Cc1cccc(COc2ccc3[nH]c(CC(N)=O)nc3c2)c1`, the inhibition at 1 µM in assay [1] is 52.7%. In assay [2], this compound showed an IC50 of 0.614 µM.

For `NC(=O)Cc1nc2cc(OCc3cccc(Cl)c3)ccc2[nH]1`, the inhibition at 1 µM in assay [1] worked out at 67.3%. In assay [2], this compound had an IC50 of 0.292 µM.

For the compound `COc1cccc(COc2ccc3[nH]c(CC(N)=O)nc3c2)c1`, the inhibition at 1 µM in assay [1] is 5.84%.

`NC(=O)Cc1nc2cc(C(=O)Nc3cccc(Cl)c3)ccc2[nH]1`: in assay [1], the inhibition at 1 µM amounted to 47.6%.

Turning to `NC(=O)Cc1nc2cc(OCc3ccccc3F)ccc2[nH]1`, the inhibition at 1 µM in assay [1] is 10.1%.

With `NC(=O)Cc1nc2cc(C(=O)Nc3ccc(F)cc3)ccc2[nH]1`, the inhibition at 1 µM in assay [1] was 44.4%.

As for `NC(=O)Cc1nc2cc(C(=O)Nc3ccc(Cl)cc3)ccc2[nH]1`, the inhibition at 1 µM in assay [1] was 38.4%.

Turning to `Cc1nc2cc(OCc3cccc(F)c3)ccc2[nH]1`, the inhibition at 1 µM in assay [1] is 2.8%.

With `COc1cccc(NC(=O)c2ccc3[nH]c(CC(N)=O)nc3c2)c1`, the inhibition at 1 µM in assay [1] amounted to 34.6%.

In the case of `COc1ccccc1NC(=O)c1ccc2[nH]c(CC(N)=O)nc2c1`, the inhibition at 1 µM in assay [1] worked out at 24.8%.

For `Cc1ccc(NC(=O)c2ccc3[nH]c(CC(N)=O)nc3c2)cc1`, the inhibition at 1 µM in assay [1] was 29.6%.

As for `NC(=O)Cc1nc2cc(C(=O)Nc3ccccc3)ccc2[nH]1`, the inhibition at 1 µM in assay [1] was 29.9%.

With `NC(=O)Cc1nc2cc(OCc3ccc(Cl)cc3)ccc2[nH]1`, the inhibition at 1 µM in assay [1] was 58.5%. The IC50 was 0.443 µM in assay [2] and 31.3 µM in assay [3].

Consider `COc1ccc(NC(=O)c2ccc3[nH]c(CC(N)=O)nc3c2)cc1`, for which, in assay [1], the inhibition at 1 µM was 28.5%.

Take `C#CCN(C)Cc1ccccc1` [PARGYLINE]: the inhibition at 1 µM in assay [1] came to 62.9%.
